Test results from patent EP1207886B1, “SPHINGOMYELINASE INHIBITORS AS AGENTS WITH ANTIAPOPTOTIC AND ANTISEPTIC ACTION” (Biofrontera Pharmaceuticals GmbH, priority 1999, dated 2000).

Legend:
Type in all cases: cell-based, Menschliche
[1] = system: Mφ; experiment: Cell culture and apoptosis test (counting YOPRO-1-stained apoptotic cells); conditions: differentiated Mφ pretreated 30 min with compound, then mmLDL or TNF α (3 ng/ml); YOPRO-1 count after four hours; read-out: Apoptose (IC-50)
Source text: LDL wurde von gesunden, freiwilligen Testpersonen durch sequentielle Flotation in einer Ultrazentrifuge bei vorbestimmten Dichten erhalten, wie in Havel et al. (J. Clin. Invest. 34, 3145 (1955)) bzw. Deigner et al. (Arzneim.-Forsch./Drug Res. 44, 956, (1994)) beschrieben. Für den Apoptose-Test wurde LDL durch Dialyse gegen Tris-HCl-Puffer, der 20 µMol FeCl3 enthielt, für 48 Stunden minimal modifiziert (mmLDL), wie von Watson et al. (J. Clin. Invest. 95, 774 (1995) beschrieben.
Menschliche, mononucleäre, periphere Blutzellen aus venösem Blut wurden isoliert, gezüchtet und, wie in Kinscherf et al. (The FASEB J. 11, 1317 (1997); The FASEB J. 12, 461 (1998)) beschrieben, bis zum Differenzieren zu Mφ belassen. Differenzierte Mφ wurden mit Lipoproteinmangelserum (P>1,21, durch Ultrazentrifugieren von fötalem Kälberserum hergestellt, wie in Havel et al. beschrieben) für 24 Stunden vor der Testdurchführung gezüchtet, mit der entsprechenden Verbindung für 30 Minuten bei den angeführten Konzentrationen vorbehandelt und anschließlich mLDL oder rekombinantem TNF α (3 ng/ml) in dem gleichen Medium ausgesetzt. Die Bestimmung der Apoptose wurde durch Zählen von YOPRO-1-gefärbten apoptotischen Zellen, wie in Idziorek et al. (J. Immunol. Methods 185, 249 (1995)) beschrieben, nach vier Stunden durchgeführt.

[2] = molecular target: T1, sauren Sphingomyelinase (Homo sapiens, UniProt P17405); experiment: SMase inhibition in cells (activity in cell lysates, BODIPY-FL-C5-sphingomyelin, HPLC); conditions: for IC50: human macrophages pretreated 30 min with compound, then 2 h oxidised LDL (27 µg/ml), lysate activity at pH 5,0, read-out: Hemmung der sauren Sphingomyelinase (Zellen) (IC-50)
T1 construct: endogenous in cells; host or cells: human macrophages (treated with compound, then oxidised LDL; lysed, supernatant assayed)
T1 sequence (P17405 47-631): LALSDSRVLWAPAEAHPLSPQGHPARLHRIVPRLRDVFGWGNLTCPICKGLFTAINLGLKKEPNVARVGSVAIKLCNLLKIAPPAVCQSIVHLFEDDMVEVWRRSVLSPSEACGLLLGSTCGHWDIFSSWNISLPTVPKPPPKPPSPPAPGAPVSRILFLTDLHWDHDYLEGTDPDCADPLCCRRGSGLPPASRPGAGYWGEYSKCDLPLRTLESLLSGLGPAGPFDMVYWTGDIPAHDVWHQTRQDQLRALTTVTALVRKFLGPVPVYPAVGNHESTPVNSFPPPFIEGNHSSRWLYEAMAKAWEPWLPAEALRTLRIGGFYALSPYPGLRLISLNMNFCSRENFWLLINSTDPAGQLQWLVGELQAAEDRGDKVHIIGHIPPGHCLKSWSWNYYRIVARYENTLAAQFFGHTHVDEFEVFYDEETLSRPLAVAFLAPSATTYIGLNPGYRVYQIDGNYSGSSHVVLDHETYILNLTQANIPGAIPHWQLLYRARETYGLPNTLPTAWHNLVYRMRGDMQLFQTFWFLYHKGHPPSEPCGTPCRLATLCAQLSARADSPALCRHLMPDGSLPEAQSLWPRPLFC

[3] = system: aSMase; experiment: RT-PCR of aSMase expression in Mφ; conditions: for mmLDL- oder Ceramid-induzierte Enzyminduktion: Mφ
Protocol: Fig. 5 zeigt die RT-PCR von aSMase in Mφ. Es zeigt sich eine Expression von aSMase (687 bp) nach Inkubation (4 h) von Mφ mit steigenden mmLDL-Konzentrationen.
(§1) Fig. 6 zeigt die Wirkung einer Vorbehandlung von Mφ mit einer Zusammensetzung die [3-(Carbazol-9-yl)-N-propyl]-[2-(4-methoxyphenyl)-ethyl]-methylamin (V6) enthält (2 µM, 30 min), auf die aSMase-Expression und die Apoptose in Mφ (Prozentanteil von apoptotischen Mφ, bestimmt durch YOPRO-1-Färbung nach Inkubation mit Medium oder C6-Ceramid (10 µM) mit oder ohne Vorbehandlung mit der Verbindung V6; Daten sind als Mittelwert ± SEM von drei Experimenten angegeben. *, P ≤ 0,05 vs. Kontrolle oder #, P ≤ 0,05 vs. mit C6-Ceramid behandelten Zellen (120 min)).
(§2) Menschliche, mononucleäre, periphere Blutzellen aus venösem Blut wurden mittels Ficoll-Paque (Sigma, Deisenhofen, BR Deutschland) Dichtegradientenzentrifugierung isoliert. Mφ wurden mmLDL (27 µg/ml), C6-Ceramid (10 µM) bzw. H2O2 (30 µM) unterworfen. Apoptotische Zellen wurden mittels YOPRO-1-Färbung (s. Idziorek et al, J. Immunol. Methods, 185, 1995, 249-258) und/oder mittels TUNEL-Technik (Quantum Appligene, Heidelberg, BR Deutschland) identifiziert. Die Bestimmung der Apoptose (Prozentanteil apoptotischer Zellen) wurde durch Zählen von YOPRO-1-gefärbten apoptotischen Zellen unter Verwendung eines Mikroskops, ausgestattet mit einer Quecksilberlampe und einer Fluoreszenzeinheit in Kombination mit einem Computer-unterstützten Morphometriesystem, quantifiziert.
Für die Amplifizierung der aSMase waren die Primer und die Bedingungen wie folgt: 5'-[…]-3' (vorwärts) und 5'-[…]-3', 94°C, 60°C, 72°C, jeweils 1 min, 40 Zyklen (Sequenzanalyse des gereinigten PCR-Produkts durch das Deutsche Krebsforschungszentrum, Heidelberg, BR Deutschland, bestätigte die Amplifizierung des erwarteten aSMase-Fragments).

[4] = system: Mφ; experiment: Apoptosis in Mφ induced by C6-ceramide or mmLDL (YOPRO-1 staining / TUNEL); conditions: for programmierten Zelltod in Mφ: mmLDL or ceramide
Protocol: as §1, §2

[5] = system: Ceramid; experiment: Ceramide concentration in cells (diacylglycerol-kinase phosphorylation); conditions: Mφ, mmLDL or ceramide
Source text: Die Ceramidkonzentrationen in den Zellen wurden nach Diacylglycerolkatalysierter Phosphorylierung, wie in Kinscherf et al. (FEBS, 405, 55 (1997)) und Dressler et al. (J. Biol. Chem. 265, 14917 (1990)) beschrieben, bestimmt.
Figur 1 zeigt in einem Diagramm die Phospho-Ceramid-Konzentration (cpm/spot) nach ox. LDL-Stimulierung zum einen ohne (ox) und zum anderen unter Zugabe entsprechender Verbindungen mit der allgemeinen Formel (I), die in den erfindungsgemäßen pharmazeutischen Zusammensetzungen enthalten sein können, nämlich [2-(3,4-Dimethoxyphenyl)-ethyl]-[3-(2-chlorphenothiazin-10-yl)-N-propyl]-methylamin (V3) und [3-(Carbazol-9-yl)-N-propyl]-[2-(4-methoxyphenyl)-ethyl]methylamin (V6). Ferner ist auch die Phospho-Ceramid-Konzentration in Folge der Stimulation durch TNF angegeben.

Compound	IC50 [1] [nM]	IC50 [2] [µM]	also measured
COc1ccc(CCN(C)CCN2c3ccccc3CCc3ccccc32)cc1OC [V15, [2-(10,11-Dihydro-dibenzo[b,f]azepin-5-yl)-N-ethyl]-[2-(3,4-dimethoxyphenyl)-ethyl]methylamin]	–	14	–
COc1ccc(CCN(C)CCCn2c3ccccc3c3ccccc32)cc1OC [V5, [3-(Carbazol-9-yl)-N-propyl]-[2-(3,4-dimethoxyphenyl)-ethyl]methylamin]	–	8	–
COc1ccc(Cn2c(=O)[nH]c3ccccc3c2=O)cc1 [3-(4-Methoxybenzyl)-1H-chinazolin-2,4-dion]	3000	–	–
COc1ccc(CCN(C)CCCN(c2ccccc2)c2ccccc2)cc1 [V34, N-[2-(4-Methoxyphenyl)-ethyl]-N-methyl-N',N'-diphenylpropan-1,3-diamin]	3000	–	–
COc1ccc(Cn2c3ccccc3c3ccccc32)cc1 [9-(4-Methoxybenzyl-9H-carbazol)]	1000	–	–
COc1ccc(Cn2c(=O)c3ccccc3n(Cc3ccc(OC)cc3)c2=O)cc1 [1,3-Bis-(4-methoxybenzyl)-1H-chinazolin-2,4-dion]	500	–	–
COc1ccc(CCN2CCN(CCn3c4ccccc4c4ccccc43)CC2)cc1 [V18, N-[2-(Carbazol-9-yl)-N-ethyl]-N'-[2-(4-methoxyphenyl)-ethyl]piperazin]	–	33	–
10-(3-{4-[2-(3,-Dimethoxyphenyl)-ethyl]-3,5-dimethylpiperazin-1-yl}-propyl)-9H-carbazol [V42]	4000	–	–
COc1ccc(CCN(C)CCCN2c3ccccc3Sc3ccc(Cl)cc32)cc1 [V4, [2-(4-Methoxyphenyl)-ethyl]-[3-(2-chlorphenothiazin-10-yl)-N-propyl]-methylamin]	5000	–	–
COc1ccc(CCN(C)CCCn2c3ccccc3c3ccccc32)cc1 [V6, [3-(Carbazol-9-yl)-N-propyl]-[2-(4-methoxyphenyl)-ethyl]methylamin]	–	9	mmLDL- oder Ceramid-induzierte Enzyminduktion [3]: inhibieren; Ceramid-vermittelte aSMase-Transkription ([3]; pretreatment of Mφ (2 µM, 30 min), C6-Ceramid (10 µM)): verhinderte; programmierten Zelltod in Mφ [4]: vermindert; Induktion von Apoptose ([4]; pretreatment of Mφ (2 µM, 30 min), C6-Ceramid (10 µM), YOPRO-1): verhinderte; Stimulierung der Ceramidbildung [5]: inhibieren; Aktivierung des Enzyms ([2]; ceramide-treated Mφ, measured in cell lysates): verhinderte; durch mmLDL (27 µg/ml) initiierten Anstieg der aSMase-Aktivität in Zelllysaten ([2]; pretreatment of Mφ, mmLDL 27 µg/ml, basal activity 2,18 nmol/h x mg): vollständig verhindert
COc1ccc(CCN(C)CCCN2c3ccccc3Sc3ccc(Cl)cc32)cc1OC [V3, [2-(3,4-Dimethoxyphenyl)-ethyl]-[3-(2-chlorphenothiazin-10-yl)-N-propyl]-methylamin]	2000	6	mmLDL- oder Ceramid-induzierte Enzyminduktion [3]: inhibieren; programmierten Zelltod in Mφ [4]: vermindert; Stimulierung der Ceramidbildung [5]: inhibieren

Now from value to compound, other results behind:

IC50 [1] [nM]	IC50 [2] [µM]	Compound	also measured
1000	–	COc1ccc(CCN2C(C)CN(CCCN3c4ccccc4Oc4ccccc43)CC2C)cc1 (stereo not drawn) [V36, 10-(3-{4-[2-(4-Methoxyphenyl)-ethyl]-3,5-dimethylpiperazin-1-yl}-propyl)-10H-phenoxazin]	–
6000	–	COc1ccc(CCN(C)CCCN(c2ccccc2)c2ccccc2)cc1OC [V35, N-[2-(3,4-Dimethoxyphenyl)-ethyl]-N-methyl-N',N'-diphenylpropan-1,3-diamin]	–
1500	20	COc1ccc(CCN(C)CCC=C2c3ccccc3CCc3ccccc32)cc1 [V31, [3-(10,11-Dihydro-dibenzo[a,d]cyclohepten-5-yliden)-propyl]-[2-(4-methoxyphenyl)-ethyl]methylamin]	–
18000	–	COc1ccc(CCN(C)C(F)(F)C(F)(F)C(F)(F)C(F)(F)n2c3ccccc3c3ccccc32)cc1 [V32, (4-Carbazol-9-yl-1,1,2,2,3,3,4,4-octafluorbutyl)-[2-(4-methoxyphenyl)-ethyl]-methylamin]	–
–	16	COc1ccc(CCN(C)CCN2c3ccccc3CCc3ccccc32)cc1 [V16, [2-(10,11-Dihydro-dibenzo[b,f]azepin-5-yl)-N-ethyl]-[2-(4-methoxyphenyl)-ethyl]methylamin]	–
7000	–	COc1ccc(CCN2CCCN(C3c4ccccc4CCc4ccccc43)C2)cc1OC [V41, N-(10,11-Dihydro-5H-dibenzo[a,d]cyclohepten-5-yl)-N'-[2-(3,4-dimethoxyphenyl)-ethyl]-hexahydropyrimidin]	–
–	8	COc1ccc(CCN(C)CCn2c3ccccc3c3ccccc32)cc1 [V23, [2-(Carbazol-9-yl)-N-ethyl]-[2-(4-methoxyphenyl)-ethyl]methylamin]	–
2500	–	COc1ccc(CCN(C)CCCN2c3ccccc3Oc3ccccc32)cc1OC [V37, [2-(3,4-Dimethoxyphenyl)-ethyl]-methyl-(phenoxazin-10-yl-propyl)amin]	–
–	10	COc1ccc(CCNCCCNC2c3ccccc3CCc3ccccc32)cc1 [V22, N-(5H-Dibenzo[a,d]cycloheptan-5-yl)-N'-[2-(4-methoxyphenyl)-ethyl]-propylendiamin]	–
6000	–	COc1ccc(CCN(C)CCC=C2c3ccccc3CCc3ccccc32)cc1OC [V38, [3-(10,11-Dihydro-dibenzo[a,d]cyclohepten-5-yliden)-propyl]-[2-(3,4-dimethoxyphenyl)-ethyl]methylamin]	–
